Experimental data as given in patent US20110306668A1 (NATIONAL TSING HUA UNIVERSITY, priority 2010, published 2011).

How the values were obtained:
Format in all cases: cell-based
[1] = test system: A549 (Human type II epithelial cell line); assay: Cytotoxicity by MTT assay, A549 cells; conditions: 48 h, incubation of 2 days, read-out: IC50 values, inhibition of growth of cells
Description: (§1) The cell lines were used in the present invention, including C26 (solid murine colon carcinoma), A549 (Human type II epithelial cell line, from American Type Culture Collection, Manassas, Va.), MCF7 (solid human estrogen receptor positive breast carcinoma) and Tramp C1 (transgenic adenocarcinoma of the mouse prostate).
(§2) 10 μL combinatorial compound was added into the well of microtiterplate planted with 100 μL of abovementioned cell lines in a concentration of 30000 cells/mL. After an incubation of 2 days, the supernatants were washed, followed by adding MTT reagents. After 4 hrs, absorbance at 580 nm was recorded according to the usual protocol.

[2] = test system: Tramp C1 (transgenic adenocarcinoma of the mouse prostate); assay: Cytotoxicity by MTT assay, TRAMP C-1 cells; conditions: for IC50: Mus musculus, TRAMP-C1, 48 h, TRAMP C-1 cells, MTT, incubation of 2 days, read-out: IC50 values, inhibition of growth of cells
Description: as §1, §2

[3] = test system: C26 (solid murine colon carcinoma); assay: Cytotoxicity by MTT assay, C26 cells; conditions: Mus musculus, 48 h, incubation of 2 days, read-out: IC50 values, inhibition of growth of cells
Description: as §1, §2

[4] = test system: MCF7 (solid human estrogen receptor positive breast carcinoma); assay: Cytotoxicity by MTT assay, MCF7 cells; conditions: 48 h, incubation of 2 days, read-out: IC50 values, inhibition of growth of cells
Description: as §1, §2

`O=C(O)CCC(=O)c1ccc(-c2ccccc2)cc1` [Fenbufen, 4-(biphenyl-4-yl)-4-oxobutanoic acid, reference compound] was tested. Which IC50 [1] did it give?
The IC50 was > 100 µM.

And the IC50 [2]?
Its IC50 is > 100 µM.

What about the IC50 [3] of the same compound?
Its IC50 is > 100 µM.

Which IC50 [1] does the source give for `Cc1ccc(C)c(OCCCC(C)(C)C(=O)NCCCCNC(=O)CCC(=O)c2ccc(-c3ccccc3)cc2)c1` [compound 12, N-(4-(4-(biphenyl-4-yl)-4-oxobutanamido)butyl)-5-(2,5-dimethylphenoxy)-2,2-dimethylpentanamide] here?
Its IC50 is 9 µM.

And the IC50 [4]?
Its IC50 is 2000 nM.

And the IC50 [2]?
Its IC50 is 21 µM.

What about the IC50 [3] of the same compound?
Its IC50 is 15 µM.

How did the IC50 [1] turn out when `CCCCC(CC)C(=O)NCCCCNC(=O)CCC(=O)c1ccc(-c2ccccc2)cc1` (stereo not shown) [compound 13, N-(4-(4-(biphenyl-4-yl)-4-oxobutanamido)butyl)-2-ethylhexanamide] was run?
Its IC50 is 17 µM.

And the IC50 [4]?
The IC50 was < 1000 nM.

And the IC50 [2]?
Its IC50 is 18 µM.

What about the IC50 [3] of the same compound?
The IC50 was 15 µM.

For `C=C(CC)C(=O)c1ccc(OCC(=O)NCCCCNC(=O)CCC(=O)c2ccc(-c3ccccc3)cc2)c(Cl)c1Cl` [compound 14, 4-(biphenyl-4-yl)-N-(4-(2-(2,3-dichloro-4-(2-methylenebutanoyl)phenoxy)acetamido)butyl)-4-oxobutanamide], which IC50 [1] is on record?
Its IC50 is 19 µM.

And the IC50 [4]?
The IC50 was 5000 nM.

And the IC50 [2]?
The IC50 was > 100 µM.

What about the “cytotoxicity against Tramp C-1 cell” value ([2]; Tramp C-1 cell, result in words) of the same compound?
The value was “void of cytotoxicity”.

What about the IC50 [3] of the same compound?
The IC50 was 35 µM.
